# System: HBsAg
# Test: HBsAg assay (CLIA of secreted HBsAg in HepG2.2.15 culture supernatant)
# Format: cell-based, HBV
# Conditions: Hepatitis B virus, HepG2.2.15, read-out: IC50 (HBsAg secretion reduced by 50% compared to the no drug control), HepG2.2.15 cells, culture supernatant, HBsAg CLIA
# Method: HepG2.2.15 cells (Acs et al. Proc Natl Acad Sci USA, 84, (1987), 4641-4), a constitutively HBV-expressing cell line were cultured in DMEM+Glutamax-I medium (Invitrogen, Carlsbad, Calif., USA, Catalog number: 11320082), supplemented with 10% fetal bovine serum (Invitrogen, Catalog number: 10099141) and G418 (Invitrogen, Catalog number: 10131027) at a final concentration of 200 mg/L and maintained in 5% CO2 at 37° C.
# HepG2.2.15 cells were seeded in duplicate into white, 96-well plates at 1.5×10^4 cells/well. The cells were treated with a three-fold serial dilution series of the compounds in DMSO. The final DMSO concentration in all wells was 1% and DMSO was used as no drug control.
# The HBsAg chemiluminescence immunoassay (CLIA) kit (Autobio Diagnostics Co., Zhengzhou, China, Catalog number: CL0310-2) was used to measure the levels of secreted HBV antigens semi-quantitatively. For the detection 50 μL/well culture supernatant was used and HBsAg was quantified using HBsAg chemiluminescence immunoassay (CLIA) kit (Autobio Diagnostics Co., Zhengzhou, China, Catalog number: CL0310-2), 50 μl of the supernatant was transferred to the CLIA assay plate and 50 μL of enzyme conjugate reagent was added into each well. The plates were sealed and gently agitated for 1 hour at room temperature. The supernatant-enzyme-mixture was discarded and wells were washed 6 times with 300 μL of PBS. The residual liquid was removed by plating the CLIA plate right side down on absorbent tissue paper. 25 μL of substrates A and B were added to each well. Luminance was measured using a luminometer (Mithras LB 940 Multimode Microplate Reader) after 10 minutes incubation. Dose-response curves were generated and the IC50 value was extrapolated by using the E-WorkBook Suite (ID Business Solutions Ltd., Guildford, UK). The IC50 was defined as the compound concentration (or conditioned media log dilution) at which HBsAg secretion was reduced by 50% compared to the no drug control.
row,SMILES,IC50 [nM]
1,"COCC(C)(C)C1Cc2cc(OC)c(OC)cc2-c2cc(=O)c(C(=O)O)cn21 (stereo not shown) [Example 2, 9,10-Dimethoxy-6-(2-methoxy-1,1-dimethyl-ethyl)-2-oxo-6,7-dihydrobenzo[a]quinolizine-3-carboxylic acid]",34
2,"COCC(C)(C)C1Cc2cc(OCC3CC3)c(OC)cc2-c2cc(=O)c(C(=O)O)cn21 (stereo not shown) [Example 9, 9-(Cyclopropylmethoxy)-10-methoxy-6-(2-methoxy-1,1-dimethyl-ethyl)-2-oxo-6,7-dihydrobenzo[a]quinolizine-3-carboxylic acid]",4
3,"COCC(C)(C)C1Cc2cc(OCc3ccccc3)c(OC)cc2-c2cc(=O)c(C(=O)O)cn21 (stereo not shown) [Example 1, 9-Benzyloxy-10-methoxy-6-(2-methoxy-1,1-dimethyl-ethyl)-2-oxo-6,7-dihydrobenzo[a]quinolizine-3-carboxylic acid]",7
4,"CCOCCOc1cc2c(cc1OC)-c1cc(=O)c(C(=O)O)cn1C(C(C)(C)COC)C2 (stereo not shown) [Example 8, 9-(2-Ethoxyethoxy)-10-methoxy-6-(2-methoxy-1,1-dimethyl-ethyl)-2-oxo-6,7-dihydrobenzo[a]quinolizine-3-carboxylic acid]",12
5,"COCC(C)(C)C1Cc2cc(OCCC3CCCN3C)c(OC)cc2-c2cc(=O)c(C(=O)O)cn21 (stereo not shown) [Example 17, 10-Methoxy-6-(2-methoxy-1,1-dimethyl-ethyl)-9-[2-(1-methylpyrrolidin-2-yl)ethoxy]-2-oxo-6,7-dihydrobenzo[a]quinolizine-3-carboxylic acid]",537
6,"CCOc1cc2c(cc1OCC)-c1cc(=O)c(C(=O)O)cn1C(CN(C)C(C)=O)C2 (stereo not shown) [Example 41, 6-[[Acetyl(methyl)amino]methyl]-9,10-diethoxy-2-oxo-6,7-dihydrobenzo[a]quinolizine-3-carboxylic acid]",4860
7,"COCC(C)(C)C1Cc2cc(OCCCCCCO)c(OC)cc2-c2cc(=O)c(C(=O)O)cn21 (stereo not shown) [Example 5, 9-(6-Hydroxyhexoxy)-10-methoxy-6-(2-methoxy-1,1-dimethyl-ethyl)-2-oxo-6,7-dihydrobenzo[a]quinolizine-3-carboxylic acid]",6
8,"CCOc1cc2c(cc1OCC)-c1cc(=O)c(C(=O)O)cn1C(CO)C2 (stereo not shown) [Example 35, 9,10-Diethoxy-6-(hydroxymethyl)-2-oxo-6,7-dihydrobenzo[a]quinolizine-3-carboxylic acid]",868
9,"COCCCOc1cc2c(cc1OC)-c1cc(=O)c(C(=O)O)cn1C(COC)C2 (stereo not shown) [Example 18, 10-Methoxy-6-(methoxymethyl)-9-(3-methoxypropoxy)-2-oxo-6,7-dihydrobenzo[a]quinolizine-3-carboxylic acid]",75
10,"COCC(C)(C)C1Cc2cc(OCCCCCCN)c(OC)cc2-c2cc(=O)c(C(=O)O)cn21 (stereo not shown) [Example 16, 9-(6-Aminohexoxy)-10-methoxy-6-(2-methoxy-1,1-dimethyl-ethyl)-2-oxo-6,7-dihydrobenzo[a]quinolizine-3-carboxylic acid]",68
11,"COCCCOc1cc2c(cc1Cl)-c1cc(=O)c(C(=O)O)cn1C(C(C)(C)COC)C2 (racemic) [Example 30, 10-Chloro-6-(2-methoxy-1,1-dimethyl-ethyl)-9-(3-methoxypropoxy)-2-oxo-6,7-dihydrobenzo[a]quinolizine-3-carboxylic acid]",4
12,"CCOc1cc2c(cc1OCC)-c1cc(=O)c(C(=O)O)cn1C(CNC(=O)c1ccccc1)C2 (stereo not shown) [Example 39, 6-(Benzamidomethyl)-9,10-diethoxy-2-oxo-6,7-dihydrobenzo[a]quinolizine-3-carboxylic acid]",19800
13,"COCCCOc1cc2c(cc1OC)-c1cc(=O)c(C(=O)O)cn1C(C(C)(C)CO)C2 (racemic) [Example 24, 6-(2-Hydroxy-1,1-dimethyl-ethyl)-10-methoxy-9-(3-methoxypropoxy)-2-oxo-6,7-dihydrobenzo[a]quinolizine-3-carboxylic acid]",5
14,"COCC(C)(C)C1Cc2cc(OCCCN(C)C)c(OC)cc2-c2cc(=O)c(C(=O)O)cn21 (stereo not shown) [Example 13, 9-[3-(Dimethylamino)propoxy]-10-methoxy-6-(2-methoxy-1,1-dimethyl-ethyl)-2-oxo-6,7-dihydrobenzo[a]quinolizine-3-carboxylic acid]",579
15,"CCOc1cc2c(cc1OCC)-c1cc(=O)c(C(=O)O)cn1C(CN1CCCC1=O)C2 (stereo not shown) [Example 40, 9,10-Diethoxy-2-oxo-6-[(2-oxopyrrolidin-1-yl)methyl]-6,7-dihydrobenzo[a]quinolizine-3-carboxylic acid]",7450
16,"CCc1cc2c(cc1OC)-c1cc(=O)c(C(=O)O)cn1C(C(C)(C)COC)C2 (stereo not shown) [Example 45, 9-Ethyl-10-methoxy-6-(2-methoxy-1,1-dimethyl-ethyl)-2-oxo-6,7-dihydrobenzo[a]quinolizine-3-carboxylic acid]",74
17,"COCCCOc1cc2c(cc1OC)-c1cc(=O)c(C(=O)O)cn1C(C(C)(C)COCc1ccccc1)C2 (stereo not shown) [Example 23, 6-(2-Benzyloxy-1,1-dimethyl-ethyl)-10-methoxy-9-(3-methoxypropoxy)-2-oxo-6,7-dihydrobenzo[a]quinolizine-3-carboxylic acid]",18
18,"CCOc1cc2c(cc1OCC)-c1cc(=O)c(C(=O)O)cn1C(CN)C2 (stereo not shown) [Example 37, 6-(Aminomethyl)-9,10-diethoxy-2-oxo-6,7-dihydrobenzo[a]quinolizine-3-carboxylic acid]",1540
19,"COCCCOc1cc2c(cc1OC)-c1cc(=O)c(C(=O)O)cn1C(C(C)(C)COC)C2 (racemic) [Example 27, 10-Methoxy-6-(2-methoxy-1,1-dimethyl-ethyl)-9-(3-methoxypropoxy)-2-oxo-6,7-dihydrobenzo[a]quinolizine-3-carboxylic acid]",5
20,"COCC(C)(C)C1Cc2cc(C#N)c(OC)cc2-c2cc(=O)c(C(=O)O)cn21 (stereo not shown) [Example 47, 9-Cyano-10-methoxy-6-(2-methoxy-1,1-dimethyl-ethyl)-2-oxo-6,7-dihydrobenzo[a]quinolizine-3-carboxylic acid]",230
21,"CCOc1cc2c(cc1OCC)-c1cc(=O)c(C(=O)O)cn1C(CNS(C)(=O)=O)C2 (stereo not shown) [Example 38, 9,10-Diethoxy-6-(methanesulfonamidomethyl)-2-oxo-6,7-dihydrobenzo[a]quinolizine-3-carboxylic acid]",33300
22,"COCC(C)(C)C1Cc2cc(OCCCCCCNC(=O)OC(C)(C)C)c(OC)cc2-c2cc(=O)c(C(=O)O)cn21 (stereo not shown) [Example 14, 9-[6-(tert-Butoxycarbonylamino)hexoxy]-10-methoxy-6-(2-methoxy-1,1-dimethyl-ethyl)-2-oxo-6,7-dihydrobenzo[a]quinolizine-3-carboxylic acid]",3
23,"COCC(C)(C)C1Cc2cc(N3CCCC3)c(OC)cc2-c2cc(=O)c(C(=O)O)cn21 (stereo not shown) [Example 46, 10-Methoxy-6-(2-methoxy-1,1-dimethyl-ethyl)-2-oxo-9-pyrrolidin-1-yl-6,7-dihydrobenzo[a]quinolizine-3-carboxylic acid]",9
24,"COCC(C)(C)C1Cc2cc(OCC(F)(F)F)c(OC)cc2-c2cc(=O)c(C(=O)O)cn21 (stereo not shown) [Example 3, 10-Methoxy-6-(2-methoxy-1,1-dimethyl-ethyl)-2-oxo-9-(2,2,2-trifluoroethoxy)-6,7-dihydrobenzo[a]quinolizine-3-carboxylic acid]",9

# Same assay, conditions: read-out: IC50 (HBsAg secretion reduced by 50% compared to the no drug control); HepG2.2.15 cells, culture supernatant, HBsAg CLIA
row,SMILES,IC50 [nM]
1,"COCCCOc1cc2c(cc1OC)-c1cc(=O)c(C(=O)O)cn1C(C(C)(C)O)C2 (single isomer, unassigned) [Example 22, (−)-6-(1-hydroxy-1-methyl-ethyl)-10-methoxy-9-(3-methoxypropoxy)-2-oxo-6,7-dihydrobenzo[a]quinolizine-3-carboxylic acid]",4020
2,"COCCCOc1cc2c(cc1Cl)-c1cc(=O)c(C(=O)O)cn1C(C(C)(C)COC)C2 (single isomer, unassigned) [Example 31, (+)-10-Chloro-6-(2-methoxy-1,1-dimethyl-ethyl)-9-(3-methoxypropoxy)-2-oxo-6,7-dihydrobenzo[a]quinolizine-3-carboxylic acid]",3
3,"COCCCOc1cc2c(cc1OC)-c1cc(=O)c(C(=O)O)cn1C(C(C)(C)CO)C2 (single isomer, unassigned) [Example 26, (−)-6-(2-hydroxy-1,1-dimethyl-ethyl)-10-methoxy-9-(3-methoxypropoxy)-2-oxo-6,7-dihydrobenzo[a]quinolizine-3-carboxylic acid]",84
4,"COCCCOc1cc2c(cc1OC)-c1cc(=O)c(C(=O)O)cn1[C@H](C(C)(C)COC)C2 (single isomer, unassigned) [Example 29, (−)-10-methoxy-6-(2-methoxy-1,1-dimethyl-ethyl)-9-(3-methoxypropoxy)-2-oxo-6,7-dihydrobenzo[a]quinolizine-3-carboxylic acid]",396
